Measured values reported in patent US20230010803A1, “TREATMENTS FOR DIFFUSE LARGE B-CELL LYMPHOMA” (Janssen Pharmaceutica NV, priority 2021, published 2023).

Legend:
non-GCB DLBCL [1] = test: Phoenix phase III randomized trial of R-CHOP with or without ibrutinib, analysed by LymphGen genetic subtype; assay type: in vivo, human; conditions: younger patients (age≤60) with N1 DLBCL (n=13)
non-GCB DLBCL [2] = conditions: cited from earlier work

In the case of `C=CC(=O)N1CCC[C@@H](n2nc(-c3ccc(Oc4ccccc4)cc3)c3c(N)ncnc32)C1` [ibrutinib], the “3-year EFS” value (non-GCB DLBCL [1]) is given as 100%, the “3-year OS” value (non-GCB DLBCL [1]) is given as 100% and the “toxicity compared to the placebo arm” value (non-GCB DLBCL [2]; older patients on the ibrutinib arm) is given as “significantly more toxicity”. The “toxicity of addition of ibrutinib to R-CHOP” value (non-GCB DLBCL [2]; younger patients with non-GCB DLBCL) was “did not significantly increase toxicity”.
